Laboratory results taken from PubChem BioAssay AID1918994 (Molecular Pharmacology Branch, DTP, NCI, 2023).

Tested on: 292921-168-R-J2-PDC complex spheroid growth
Test: Anticancer human tumor 292921-168-R-J2-PDC patient-derived pancreatic carcinoma cell line growth inhibition [AhR]
Conditions: for IC50: curve of first compound; for viability, T/C: stronger effect = lower value
In short: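 Complex tumor spheroids co-cultured with HUVEC and human MSC stroma; AhR antagonists tested in combination with standard-of-care and investigational agents. Top concentration at or near clinical Cmax (else 10 microM), half-log dilutions; growth expressed as percent test/control.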

[1] = second compound 0.1 µM, first compound 0.0316 µM
[2] = second compound 0.1 µM, first compound 0.1 µM
[3] = second compound 0.1 µM, first compound 0.316 µM
[4] = second compound 0.1 µM, first compound 1 µM
[5] = second compound 0.1 µM, first compound 3.16 µM
[6] = second compound 0.1 µM, first compound 10 µM
[7] = second compound 0.316 µM, first compound 0.0316 µM
[8] = second compound 0.316 µM, first compound 0.1 µM
[9] = second compound 0.316 µM, first compound 0.316 µM
[10] = second compound 0.316 µM, first compound 1 µM
[11] = second compound 0.316 µM, first compound 3.16 µM
[12] = second compound 0.316 µM, first compound 10 µM
[13] = second compound 1 µM, first compound 0.0316 µM
[14] = second compound 1 µM, first compound 0.1 µM
[15] = second compound 1 µM, first compound 0.316 µM
[16] = second compound 1 µM, first compound 1 µM
[17] = second compound 1 µM, first compound 3.16 µM
[18] = second compound 1 µM, first compound 10 µM
[19] = second compound 3.16 µM, first compound 0.0316 µM
[20] = second compound 3.16 µM, first compound 0.1 µM
[21] = second compound 3.16 µM, first compound 0.316 µM
[22] = second compound 3.16 µM, first compound 1 µM
[23] = second compound 3.16 µM, first compound 3.16 µM
[24] = second compound 3.16 µM, first compound 10 µM
[25] = second compound 10 µM, first compound 0.0316 µM
[26] = second compound 10 µM, first compound 0.1 µM
[27] = second compound 10 µM, first compound 0.316 µM
[28] = second compound 10 µM, first compound 1 µM
[29] = second compound 10 µM, first compound 3.16 µM
[30] = second compound 10 µM, first compound 10 µM
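Further: spheroids exposed to compounds for seven days after three days of growth.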

| IC50 (second compound 0.1 µM) [nM] | IC50 (second compound 0.316 µM) [nM] | IC50 (second compound 1 µM) [nM] | IC50 (second compound 3.16 µM) [nM] | IC50 (second compound 10 µM) [nM] | SMILES | viability, T/C [1] [%] | viability, T/C [2] [%] | viability, T/C [3] [%] | viability, T/C [4] [%] | viability, T/C [7] [%] | viability, T/C [8] [%] | viability, T/C [9] [%] | viability, T/C [10] [%] | viability, T/C [13] [%] | viability, T/C [14] [%] | viability, T/C [15] [%] | viability, T/C [16] [%] | viability, T/C [19] [%] | viability, T/C [20] [%] | viability, T/C [21] [%] | other results |
| --- | --- | --- | --- | --- | --- | --- | --- | --- | --- | --- | --- | --- | --- | --- | --- | --- | --- | --- | --- | --- | --- |
| 565 | 581 | 289 | 261 | < 31.6 | COc1cc(C2c3cc4c(cc3C(OC3OC5COC(C)OC5C(O)C3O)C3COC(=O)C23)OCO4)cc(OC)c1O (stereo not given) + Cc1cncc(-c2nc(NCCc3c[nH]c4ccccc34)c3ncn(C(C)C)c3n2)c1 | 92.6 | 92.2 | 64 | 34.1 | 78.7 | 73.6 | 64.8 | 35.9 | 77.1 | 67 | 48.9 | 28.7 | 62.3 | 62.5 | 47.5 | viability, T/C [5]: 24.2%; viability, T/C [6]: 13.3%; viability, T/C [11]: 24.7%; viability, T/C [12]: 12.9%; viability, T/C [17]: 23.4%; viability, T/C [18]: 13.1%; viability, T/C [22]: 25.9%; viability, T/C [23]: 21.2%; viability, T/C [24]: 13.5%; viability, T/C [25]: 46.5%; viability, T/C [26]: 43.6%; viability, T/C [27]: 37.2%; viability, T/C [28]: 26.2%; viability, T/C [29]: 22.3%; viability, T/C [30]: 20.2% |
| < 31.6 | < 31.6 | < 31.6 | < 31.6 | < 31.6 | COc1cccc2c1C(=O)c1c(O)c3c(c(O)c1C2=O)CC(O)(C(=O)CO)CC3OC1CC(N)C(O)C(C)O1 (stereo not given) + Cc1cncc(-c2nc(NCCc3c[nH]c4ccccc34)c3ncn(C(C)C)c3n2)c1 | 30.9 | 25.2 | 9.88 | 0.21 | 30.6 | 23.2 | 9.81 | 0.2 | 29.3 | 22.7 | 9.15 | 0.34 | 26.8 | 22.1 | 9.58 | viability, T/C [5]: 0.78%; viability, T/C [6]: 2.79%; viability, T/C [11]: 0.66%; viability, T/C [12]: 2.98%; viability, T/C [17]: 1.61%; viability, T/C [18]: 3.01%; viability, T/C [22]: 0.2%; viability, T/C [23]: 1.48%; viability, T/C [24]: 3.82%; viability, T/C [25]: 25.3%; viability, T/C [26]: 21.3%; viability, T/C [27]: 10.8%; viability, T/C [28]: 0.46%; viability, T/C [29]: 2.04%; viability, T/C [30]: 4.23% |
| > 1000 | > 1000 | > 1000 | > 1000 | 9.68 | Nc1ncn(C2CC(O)C(CO)O2)c(=O)n1 (stereo not given) + Cc1cncc(-c2nc(NCCc3c[nH]c4ccccc34)c3ncn(C(C)C)c3n2)c1 | 84 | 89.6 | 80.6 | 65.6 | 88.1 | 79.3 | 78.6 | 70.7 | 80.4 | 77.8 | 82 | 73.7 | 76.5 | 67.6 | 64.1 | viability, T/C (second compound 0.1 µM, first compound 0.00316 µM): 99.6%; viability, T/C (second compound 0.1 µM, first compound 0.01 µM): 100%; viability, T/C (second compound 0.316 µM, first compound 0.00316 µM): 84.1%; viability, T/C (second compound 0.316 µM, first compound 0.01 µM): 86.2%; viability, T/C (second compound 1 µM, first compound 0.00316 µM): 80.5%; viability, T/C (second compound 1 µM, first compound 0.01 µM): 86.9%; viability, T/C (second compound 3.16 µM, first compound 0.00316 µM): 70.7%; viability, T/C (second compound 3.16 µM, first compound 0.01 µM): 71.9%; viability, T/C [22]: 62.3%; viability, T/C (second compound 10 µM, first compound 0.00316 µM): 51.9%; viability, T/C (second compound 10 µM, first compound 0.01 µM): 49%; viability, T/C [25]: 50%; viability, T/C [26]: 47.1%; viability, T/C [27]: 43.2%; viability, T/C [28]: 45.5% |
